From patent US10986835B2, “Use of 9-tricosene to control Drosophila suzukii” (Globachem NV, priority 2016, dated 2021) come the findings set out here.

In experiment [1] the test system is Drosophila suzukii. In words: Behavior assay: courtship behavior of wild type 4-day-old males towards perfumed flies. The class given is in vivo. The following applies: compound in n-hexane painted onto abdomen; 4 tested conditions (perfumed 1-day-old females, 1-day-old males, 4-day-old females, 4-day-old males) paired with wild type 4-day-old males; filmed two hours; FIG. 1. As for the experimental part: (§1) Drosophila suzukii adults were caught in the wild (Sint-Truiden, Limburg, Belgium). The flies were reared in quarantined facilities at 21° C. on Cornmeal-sucrose-yeast-agar medium.
(§2) All flies were collected within 12 hours of eclosing, after which they were used to make one-day-old samples or aged to four days old. The four-day-old socially nave flies were aged separated from the other sex, contrary to the socially experienced flies, which were aged, mixed with the other sex.
N-hexane (95%), n-heneicosane (98%), n-tricosane (98%), (Z)-7-tricosene (98%) and (Z)-9-tricosene (97%) were bought from Thermo-Fischer and Sigma Aldrich. (Z)-5-tricosene (99%) and 2-methyloctacosane (95%) were synthesized by a hired company, Ecosynth (Gent, Belgium). These compounds were dissolved in n-hexane (95%) and painted onto the abdomen of Drosophila suzukii flies using number 2 paintbrushes. The four-day-old flies were perfumed 24 hours prior to testing, one-day-old flies 1 hour prior to testing.
Behavior assays were performed in a room with regulated temperature (21° C.) and always at the same time (10 h30). The perfumed Drosophila suzukii flies were put individually with a wild type four-day-old Drosophila suzukii male in a circular arena (3 cm diameter). Every couple was filmed for two hours, due to the low activity rate of the species, using Sony Handycams CX240. Subsequently these videos were analyzed for courtship behavior and copulation based on Mazzoni et al. 2013 (Plos One 8(11): e80708). The behavioral data was analyzed using a contingency table and followed by t-tests, as well as one-way ANOVA tests for the continuous data.
Behavior experiments were performed as follows. Four different conditions of flies were perfumed: one-day-old females, one-day-old males, four-day-old females and four-day-old males. These perfumed flies were paired with wild type four-day-old males. Subjects were scored for both courtship modules as well as copulation. As a control the solvent for the perfumes (n-hexane) was used.

Experiment [2] has as its system Drosophila suzukii. The experiment can be described thus: Behavior assay: copulation between wild type 4-day-old males and perfumed 4-day-old females. In kind it is in vivo. The following applies: perfumed four-day-old females paired with wild type four-day-old males; filmed two hours; FIG. 3. As for the experimental part: as §1, §2
N-hexane (95%), n-heneicosane (98%), n-tricosane (98%), (Z)-7-tricosene (98%) and (Z)-9-tricosene (97%) were bought from Thermo-Fischer and Sigma Aldrich. (Z)-5-tricosene (99%) and 2-methyloctacosane (95%) were synthesized by a hired company, Ecosynth (Gent, Belgium). These compounds were dissolved in n-hexane (95%) and painted onto the abdomen of Drosophila suzukii flies using number 2 paintbrushes. […]
Behavior assays were performed in a room with regulated temperature (21° C.) and always at the same time (10 h30). […] Subsequently these videos were analyzed for courtship behavior and copulation based on Mazzoni et al. 2013 (Plos One 8(11): e80708). The behavioral data was analyzed using a contingency table and followed by t-tests, as well as one-way ANOVA tests for the continuous data.
Behavior experiments were performed as follows. […] Subjects were scored for both courtship modules as well as copulation. […]

Molecules are shown by their SMILES.

As to `CCCCCCCCCCCCCCCCCCCCCCCCCCC(C)C` [2-methyloctacosane], the “effect on occurrence of courtship” value in the experiment on Drosophila suzukii [1] is given as “no significant differences”.

For `CCCCCCCCCCCCCCCCCCCCCCC` [n-tricosane], in the experiment with Drosophila suzukii [1], the “effect on occurrence of courtship” value was “no significant differences”.

Consider `CCCCCC/C=C\CCCCCCCCCCCCCCC` [(Z)-7-tricosene], for which the “effect on occurrence of courtship” value in the experiment on Drosophila suzukii [1] is on record as “no significant differences”. For the same compound, in the experiment on Drosophila suzukii [2], the “effect on occurrence of copulation” value was “significantly decreased”.

`CCCCCCCC/C=C\CCCCCCCCCCCCC` [(Z)-9-tricosene]: the “effect on occurrence of courtship” value with Drosophila suzukii [1] was “no significant differences”. In the experiment on Drosophila suzukii [2], the “effect on occurrence of copulation” value is reported as “significantly decreased”.

On to `CCCC/C=C\CCCCCCCCCCCCCCCCC` [(Z)-5-tricosene], for which the “effect on occurrence of courtship” value with Drosophila suzukii [1] is “no significant differences”.

As to `CCCCCCCCCCCCCCCCCCCCC` [n-heneicosane], in the experiment on Drosophila suzukii [1], the “effect on occurrence of courtship” value is “no significant differences”.
